Among the data in patent publication US20260217687A1 (NeoPhore Limited, priority 2023, published 2026) are IC50 values, retold here.

The test deals with T1, recombinant N-terminal MLH1 (residues 15-340) (Homo sapiens, UniProt P40692).
T1 construct: recombinant N-terminal MLH1 (residues 15-340)
T1 sequence (P40692 15-340): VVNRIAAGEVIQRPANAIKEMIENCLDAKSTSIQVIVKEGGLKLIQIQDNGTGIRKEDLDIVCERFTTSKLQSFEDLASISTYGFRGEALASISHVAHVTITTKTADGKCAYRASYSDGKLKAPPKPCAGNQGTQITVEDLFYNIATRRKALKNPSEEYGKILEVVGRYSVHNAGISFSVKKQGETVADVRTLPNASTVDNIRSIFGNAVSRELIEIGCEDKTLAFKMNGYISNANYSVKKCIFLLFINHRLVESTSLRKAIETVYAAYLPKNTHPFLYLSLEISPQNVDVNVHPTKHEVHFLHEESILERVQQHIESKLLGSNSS
Nature of the test: Fluorescence Polarisation Assay for MLH1. Format: binding. Particulars: 100 nM N-terminal MLH1, 5 nM probe compound. As to the method: Fluorescence Polarisation Assay for MLH1
Test compounds, as 10 mM DMSO stocks, were dispensed into a 384-well Low Flange Black Flat Bottom Polystyrene Non-binding Surface plate (Corning®, item number 3575) using a Labcyte Echo acoustic liquid handler. […] 20 μL of a 2× solution (200 nM) of recombinant N-terminal MLH1 (residues 15-340) in assay buffer (25 mM HEPES, pH 7.5, 250 mM NaCl, 10 mM MgCl2, 0.01% Triton X-100, 5 mM Dithiothreitol) was added to all wells in columns 1-23 and 20 μL assay buffer was added to all wells in column 24 using an E1-ClipTip pipette (ThermoFisher). Plates were centrifuged for 1 minute at 250 xg and were incubated at room temperature for 30 minutes prior to the addition of 20 μL of 2×(10 nM) of 5-((5-(4-((2-(2-(Benzyloxy)-4,6-dihydroxybenzoyl)isoindolin-5-yl)methyl)piperazin-1-yl)pentyl)carbamoyl)-2-(6-(dimethylamino)-3-(dimethyliminio)-3H-xanthen-9-yl)benzoate (referred to hereinafter as “probe compound”) in assay buffer (prepared from a 1 mM DMSO stock) with an E1-ClipTip pipette (ThermoFisher). The final concentration of N-terminal MLH1 was 100 nM and the final concentration of the probe compound was 5 nM. Compound plates were centrifuged for 1 minute at 250 xg for 1 minute and immediately read on a PheraStar FSX (fitted with 384-well aperture spoon and 590 675 675 FP optic module). The gain and focus were adjusted before each plate was read so that the polarisation of a no enzyme control (column 24) was equal to 35 mP. Data were normalised against the no inhibitor controls (column 23) and no enzyme controls (column 24).
On the technique in general: In fluorescence polarisation assays a small probe gives low polarisation when free and higher when bound to something large.

SMILES strings stand for the structures.

What is called IC50 is the concentration that inhibits the measured activity by half. As for `CN1C[C@H](Nc2cccc3c2CN(C(=O)c2c(O)cc(C#N)cc2OCc2ccccc2)C3)CC1=O` (single isomer, unassigned) [Example 10.7, (R)-3-(Benzyloxy)-5-hydroxy-4-(4-((1-methyl-5-oxopyrrolidin-3-yl)amino)isoindoline-2-carbonyl)benzonitrile or (S)-3-(benzyloxy)-5-hydroxy-4-(4-((1-methyl-5-oxopyrrolidin-3-yl)amino)isoindoline-2-carbonyl)benzonitrile], the concentration for half-maximal inhibition (IC50) lay in the range of 100 to 1000 nM. With `CN1C[C@H](Nc2cccc3c2CN(C(=O)c2c(O)cc(C#N)cc2OCc2ccccc2)C3)CC1=O` (single isomer, unassigned) [Example 10.8, (R)-3-(Benzyloxy)-5-hydroxy-4-(4-((1-methyl-5-oxopyrrolidin-3-yl)amino)isoindoline-2-carbonyl)benzonitrile or (S)-3-(benzyloxy)-5-hydroxy-4-(4-((1-methyl-5-oxopyrrolidin-3-yl)amino)isoindoline-2-carbonyl)benzonitrile], the IC50 is 100 to 1000 nM. For the compound `O=C(c1c(O)cc(C(F)F)cc1OCc1ccccc1)N1CCc2ccc(NC3CCOC3)cc21` (single isomer, unassigned) [Example 27.2a, (S)-(2-(Benzyloxy)-4-(difluoromethyl)-6-hydroxyphenyl)(6-((tetrahydrofuran-3-yl)amino)indolin-1-yl)methanone or (R)-(2-(Benzyloxy)-4-(difluoromethyl)-6-hydroxyphenyl)(6-((tetrahydrofuran-3-yl)amino)indolin-1-yl)methanone], the half-inhibitory concentration (IC50) was in the range of 100 to 1000 nM. As for `O=C(c1c(O)cc(C(F)F)cc1OCc1ccccc1)N1CCc2ccc(N[C@H]3CCOC3)cc21` (single isomer, unassigned) [Example 27.2b, (S)-(2-(Benzyloxy)-4-(difluoromethyl)-6-hydroxyphenyl)(6-((tetrahydrofuran-3-yl)amino)indolin-1-yl)methanone or (R)-(2-(benzyloxy)-4-(difluoromethyl)-6-hydroxyphenyl)(6-((tetrahydrofuran-3-yl)amino)indolin-1-yl)methanone], the figure is 100 to 1000 nM; as for `O=C(c1c(O)cc(C(F)F)cc1OCc1ccccc1)N1CCc2cc(NC3CCOC3)ccc21` (single isomer, unassigned) [Example 27.5a, (S)-(2-(Benzyloxy)-4-(difluoromethyl)-6-hydroxyphenyl)(5-((tetrahydrofuran-3-yl)amino)indolin-1-yl)methanone or (R)-(2-(Benzyloxy)-4-(difluoromethyl)-6-hydroxyphenyl)(5-((tetrahydrofuran-3-yl)amino)indolin-1-yl)methanone], 100 to 1000 nM; as for `O=C(c1c(O)cc(C(F)F)cc1OCc1ccccc1)N1CCc2cc(NC3CCOC3)ccc21` (single isomer, unassigned) [Example 27.5b, (S)-(2-(Benzyloxy)-4-(difluoromethyl)-6-hydroxyphenyl)(5-((tetrahydrofuran-3-yl)amino)indolin-1-yl)methanone or (R)-(2-(Benzyloxy)-4-(difluoromethyl)-6-hydroxyphenyl)(5-((tetrahydrofuran-3-yl)amino)indolin-1-yl)methanone], 100 to 1000 nM. Regarding `COc1cc(O)c(C(=O)N2Cc3cccc(N[C@H]4CCOC4)c3C2)c(OCc2ccccc2)c1` [Example 1, (S)-(2-(Benzyloxy)-6-hydroxy-4-methoxyphenyl)(4-((tetrahydrofuran-3-yl)amino)isoindolin-2-yl)methanone], the IC50 lay in the range of 100 to 1000 nM.

As to `COc1cc(O)c(C(=O)N2Cc3cccc(N[C@@H]4CCOC4)c3C2)c(OCc2ccccc2)c1` [Example 2, (R)-(2-(Benzyloxy)-6-hydroxy-4-methoxyphenyl)(4-((tetrahydrofuran-3-yl)amino)isoindolin-2-yl)methanone], the IC50 lay in the range of 100 to 1000 nM. Consider `O=C(c1c(O)cc(C(F)F)cc1OCc1ccccc1)N1Cc2cccc(N[C@@H]3CCOC3)c2C1` [Example 3, (R)-(2-(Benzyloxy)-4-(difluoromethyl)-6-hydroxyphenyl)(4-((tetrahydrofuran-3-yl)amino)isoindolin-2-yl)methanone], for which the IC50 lay within 100 to 1000 nM. With `O=C(c1c(O)cc(C(F)F)cc1OCc1ccccc1)N1Cc2cccc(N[C@H]3CCOC3)c2C1` [Example 4, (S)-(2-(Benzyloxy)-4-(difluoromethyl)-6-hydroxyphenyl)(4-((tetrahydrofuran-3-yl)amino)isoindolin-2-yl)methanone], the IC50 is 100 to 1000 nM. Take `COc1cccc(COc2cc(C(F)F)cc(O)c2C(=O)N2Cc3cccc(N[C@H]4CCOC4)c3C2)c1` [Example 4.1, (S)-(4-(Difluoromethyl)-2-hydroxy-6-((3-methoxybenzyl)oxy)phenyl)(4-((tetrahydrofuran-3-yl)amino)isoindolin-2-yl)methanone]: the concentration for half-maximal inhibition (IC50) was in the range of 100 to 1000 nM. As for `CN(C)Cc1cc2c(c(N[C@H]3CCOC3)c1)CN(C(=O)c1c(O)cc(C(F)F)cc1OCc1ccccc1)C2` [Example 4.2, (S)-(2-(Benzyloxy)-4-(difluoromethyl)-6-hydroxyphenyl)(6-((dimethylamino)methyl)-4-((tetrahydrofuran-3-yl)amino)isoindolin-2-yl)methanone], the figure is 100 to 1000 nM. Turning to `CC(=O)N1CC(Nc2cccc3c2CN(C(=O)c2c(O)cc(C(F)F)cc2OCc2ccccc2)C3)C1` [Example 4.3, 1-(3-((2-(2-(Benzyloxy)-4-(difluoromethyl)-6-hydroxybenzoyl)isoindolin-4-yl)amino)azetidin-1-yl)ethan-1-one], the IC50 fell in the range of 100 to 1000 nM.

Regarding `O=C(c1c(O)cc(C(F)F)cc1OCc1ccccc1)N1Cc2cccc(NC3COC3)c2C1` [Example 4.4, (2-(Benzyloxy)-4-(difluoromethyl)-6-hydroxyphenyl)(4-(oxetan-3-ylamino)isoindolin-2-yl)methanone], the IC50 is 100 to 1000 nM. For the compound `O=C(c1c(O)cc(C(F)F)cc1OCc1ccccn1)N1Cc2cccc(NC3COC3)c2C1` [Example 4.5, (4-(Difluoro methyl)-2-hydroxy-6-(pyridin-2-ylmethoxy)phenyl) (4-(oxetan-3-ylamino)isoindolin-2-yl) methanone], the IC50 was 100 to 1000 nM.

On to `O=C(c1c(O)cc(C(F)F)cc1OCc1ccccc1)N1CCc2cccc(N[C@H]3CCOC3)c2C1` [Example 4.6, (S)-(2-(Benzyloxy)-4-(difluoromethyl)-6-hydroxyphenyl)(8-((tetrahydrofuran-3-yl)amino)-3,4-dihydroisoquinolin-2(1H)-yl)methanone], for which the IC50 fell in the range of 100 to 1000 nM.

Turning to `O=C(c1c(O)cc(C(F)F)cc1OCc1ccccc1)N1CCc2cccc(NC3COC3)c2C1` [Example 4.7, (2-(Benzyloxy)-4-(difluoromethyl)-6-hydroxyphenyl)(8-(oxetan-3-ylamino)-3,4-dihydroisoquinolin-2(1H)-yl) methanone], the IC50 was in the range of 100 to 1000 nM. Turning to `COc1ccc(COc2cc(C(F)F)cc(O)c2C(=O)N2Cc3cccc(N[C@H]4CCOC4)c3C2)cc1` [Example 4.8, (S)-(4-(Difluoromethyl)-2-hydroxy-6-((4-methoxybenzyl)oxy)phenyl)(4-((tetrahydrofuran-3-yl)amino)isoindolin-2-yl)methanone], the half-inhibitory concentration (IC50) was in the range of 100 to 1000 nM.

As to `O=C(c1c(O)cc(C(F)F)cc1OCc1ccccn1)N1Cc2cccc(N[C@H]3CCOC3)c2C1` [Example 4.9, (S)-(4-(Difluoromethyl)-2-hydroxy-6-(pyridin-2-ylmethoxy)phenyl) (4-((tetrahydrofuran-3-yl)amino)isoindolin-2-yl) methanone], the IC50 is 100 to 1000 nM.
